From paper PMC4415586 (European journal of medicinal chemistry, 2014)

How the values were obtained:
TNKS-1 = molecular target: T1, TNKS-1 (Homo sapiens, UniProt O95271); test: TNKS-1 autoribosylation assay; settings: for inhibition at 1 µM: read-out: % of inhibition TNKS-1, 1 μM, duplicate; for % of inhibition TNKS-1: 1 μM, duplicate
T1 sequence (O95271 1-1327): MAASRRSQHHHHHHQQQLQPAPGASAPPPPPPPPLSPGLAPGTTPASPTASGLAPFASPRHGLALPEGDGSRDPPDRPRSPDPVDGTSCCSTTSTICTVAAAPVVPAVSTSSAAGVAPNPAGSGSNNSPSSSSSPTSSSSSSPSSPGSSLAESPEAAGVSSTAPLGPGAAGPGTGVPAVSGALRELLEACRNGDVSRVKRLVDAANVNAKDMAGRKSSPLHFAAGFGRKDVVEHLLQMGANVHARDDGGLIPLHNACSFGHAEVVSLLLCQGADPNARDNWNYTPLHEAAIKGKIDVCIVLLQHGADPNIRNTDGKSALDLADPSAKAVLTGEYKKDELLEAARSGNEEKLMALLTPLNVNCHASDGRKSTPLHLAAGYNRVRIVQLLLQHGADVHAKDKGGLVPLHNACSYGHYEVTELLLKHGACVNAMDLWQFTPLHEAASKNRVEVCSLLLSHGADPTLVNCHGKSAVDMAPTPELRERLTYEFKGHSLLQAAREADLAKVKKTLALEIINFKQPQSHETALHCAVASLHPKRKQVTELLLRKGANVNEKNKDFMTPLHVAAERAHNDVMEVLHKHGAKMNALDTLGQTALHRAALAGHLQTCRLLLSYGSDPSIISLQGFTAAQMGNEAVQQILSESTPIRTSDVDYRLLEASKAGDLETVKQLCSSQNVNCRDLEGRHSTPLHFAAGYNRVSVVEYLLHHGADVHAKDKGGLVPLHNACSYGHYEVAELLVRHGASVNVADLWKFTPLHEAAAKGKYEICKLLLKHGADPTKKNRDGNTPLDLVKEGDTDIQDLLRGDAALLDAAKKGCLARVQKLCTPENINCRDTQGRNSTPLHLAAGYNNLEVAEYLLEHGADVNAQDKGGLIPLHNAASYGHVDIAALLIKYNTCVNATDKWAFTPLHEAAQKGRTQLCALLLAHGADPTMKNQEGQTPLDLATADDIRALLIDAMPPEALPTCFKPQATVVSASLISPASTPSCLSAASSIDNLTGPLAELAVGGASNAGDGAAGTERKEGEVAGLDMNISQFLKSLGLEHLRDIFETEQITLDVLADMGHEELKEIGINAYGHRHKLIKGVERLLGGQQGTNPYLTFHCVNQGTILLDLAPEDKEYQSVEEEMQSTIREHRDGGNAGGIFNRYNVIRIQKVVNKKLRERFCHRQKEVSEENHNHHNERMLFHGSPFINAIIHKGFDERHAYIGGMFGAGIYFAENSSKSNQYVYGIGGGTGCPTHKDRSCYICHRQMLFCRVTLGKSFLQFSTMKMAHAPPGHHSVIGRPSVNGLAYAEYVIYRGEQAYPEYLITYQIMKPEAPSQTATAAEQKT

TNKS-2 = molecular target: T2, TNKS-2 (Homo sapiens, UniProt Q9H2K2); test: TNKS-2 autoribosylation assay; settings: for inhibition at 1 µM: read-out: % of inhibition TNKS-2, 1 μM, duplicate
T2 sequence (Q9H2K2 1-1166): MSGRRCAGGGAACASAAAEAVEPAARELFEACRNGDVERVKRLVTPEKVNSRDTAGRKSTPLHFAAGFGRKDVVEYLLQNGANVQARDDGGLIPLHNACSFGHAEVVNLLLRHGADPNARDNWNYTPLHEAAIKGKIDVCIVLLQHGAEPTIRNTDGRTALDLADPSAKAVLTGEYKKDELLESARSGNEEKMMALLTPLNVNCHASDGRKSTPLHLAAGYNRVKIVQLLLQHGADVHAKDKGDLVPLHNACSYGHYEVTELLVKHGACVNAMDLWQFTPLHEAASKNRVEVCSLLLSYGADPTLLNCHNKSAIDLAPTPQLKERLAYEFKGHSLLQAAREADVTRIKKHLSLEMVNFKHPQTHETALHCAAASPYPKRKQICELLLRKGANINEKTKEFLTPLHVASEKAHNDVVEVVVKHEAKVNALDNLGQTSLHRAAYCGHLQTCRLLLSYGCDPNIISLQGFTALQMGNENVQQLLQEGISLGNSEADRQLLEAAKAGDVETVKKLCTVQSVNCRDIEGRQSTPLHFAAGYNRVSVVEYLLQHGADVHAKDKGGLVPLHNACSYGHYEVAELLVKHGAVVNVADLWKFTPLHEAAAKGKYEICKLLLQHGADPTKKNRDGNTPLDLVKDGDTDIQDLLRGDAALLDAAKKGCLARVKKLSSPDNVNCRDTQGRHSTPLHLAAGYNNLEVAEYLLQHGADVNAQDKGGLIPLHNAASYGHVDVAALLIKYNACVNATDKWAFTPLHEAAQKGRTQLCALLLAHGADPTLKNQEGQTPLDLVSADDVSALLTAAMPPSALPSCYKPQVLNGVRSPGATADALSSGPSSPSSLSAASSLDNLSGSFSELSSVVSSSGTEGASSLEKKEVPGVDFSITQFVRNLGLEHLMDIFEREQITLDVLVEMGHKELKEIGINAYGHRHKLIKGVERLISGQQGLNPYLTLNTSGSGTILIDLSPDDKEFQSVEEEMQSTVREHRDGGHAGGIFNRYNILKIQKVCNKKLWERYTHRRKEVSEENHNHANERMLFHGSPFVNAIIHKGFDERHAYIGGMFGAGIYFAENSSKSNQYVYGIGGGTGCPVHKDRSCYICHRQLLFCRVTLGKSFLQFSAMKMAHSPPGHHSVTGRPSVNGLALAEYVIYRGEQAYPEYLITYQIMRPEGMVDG

PARP-2 = PARP-2 (Homo sapiens, UniProt Q9UGN5); settings: 20 nM, reference compound
PARP-2, sequence (Q9UGN5 whole entry): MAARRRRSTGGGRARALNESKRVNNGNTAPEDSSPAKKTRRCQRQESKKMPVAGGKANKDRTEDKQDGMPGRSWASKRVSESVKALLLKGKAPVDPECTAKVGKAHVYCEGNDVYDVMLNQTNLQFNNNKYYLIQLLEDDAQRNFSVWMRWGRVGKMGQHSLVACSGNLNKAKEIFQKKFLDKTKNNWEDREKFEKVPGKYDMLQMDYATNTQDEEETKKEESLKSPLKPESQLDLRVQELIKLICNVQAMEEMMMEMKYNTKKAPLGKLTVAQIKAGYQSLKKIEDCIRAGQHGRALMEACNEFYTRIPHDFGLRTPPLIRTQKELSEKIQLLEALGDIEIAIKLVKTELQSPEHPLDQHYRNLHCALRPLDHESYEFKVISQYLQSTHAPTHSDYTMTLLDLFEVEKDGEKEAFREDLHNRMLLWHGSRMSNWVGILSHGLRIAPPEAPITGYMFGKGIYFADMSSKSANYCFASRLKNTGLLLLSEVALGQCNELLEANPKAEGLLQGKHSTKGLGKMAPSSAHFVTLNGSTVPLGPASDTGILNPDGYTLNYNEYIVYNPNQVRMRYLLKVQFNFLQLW

PARP-14 = PARP-14 (Homo sapiens, UniProt Q460N5); test: PARP-14 enzymatic assay; settings: 100 μM
PARP-14, sequence (Q460N5 whole entry): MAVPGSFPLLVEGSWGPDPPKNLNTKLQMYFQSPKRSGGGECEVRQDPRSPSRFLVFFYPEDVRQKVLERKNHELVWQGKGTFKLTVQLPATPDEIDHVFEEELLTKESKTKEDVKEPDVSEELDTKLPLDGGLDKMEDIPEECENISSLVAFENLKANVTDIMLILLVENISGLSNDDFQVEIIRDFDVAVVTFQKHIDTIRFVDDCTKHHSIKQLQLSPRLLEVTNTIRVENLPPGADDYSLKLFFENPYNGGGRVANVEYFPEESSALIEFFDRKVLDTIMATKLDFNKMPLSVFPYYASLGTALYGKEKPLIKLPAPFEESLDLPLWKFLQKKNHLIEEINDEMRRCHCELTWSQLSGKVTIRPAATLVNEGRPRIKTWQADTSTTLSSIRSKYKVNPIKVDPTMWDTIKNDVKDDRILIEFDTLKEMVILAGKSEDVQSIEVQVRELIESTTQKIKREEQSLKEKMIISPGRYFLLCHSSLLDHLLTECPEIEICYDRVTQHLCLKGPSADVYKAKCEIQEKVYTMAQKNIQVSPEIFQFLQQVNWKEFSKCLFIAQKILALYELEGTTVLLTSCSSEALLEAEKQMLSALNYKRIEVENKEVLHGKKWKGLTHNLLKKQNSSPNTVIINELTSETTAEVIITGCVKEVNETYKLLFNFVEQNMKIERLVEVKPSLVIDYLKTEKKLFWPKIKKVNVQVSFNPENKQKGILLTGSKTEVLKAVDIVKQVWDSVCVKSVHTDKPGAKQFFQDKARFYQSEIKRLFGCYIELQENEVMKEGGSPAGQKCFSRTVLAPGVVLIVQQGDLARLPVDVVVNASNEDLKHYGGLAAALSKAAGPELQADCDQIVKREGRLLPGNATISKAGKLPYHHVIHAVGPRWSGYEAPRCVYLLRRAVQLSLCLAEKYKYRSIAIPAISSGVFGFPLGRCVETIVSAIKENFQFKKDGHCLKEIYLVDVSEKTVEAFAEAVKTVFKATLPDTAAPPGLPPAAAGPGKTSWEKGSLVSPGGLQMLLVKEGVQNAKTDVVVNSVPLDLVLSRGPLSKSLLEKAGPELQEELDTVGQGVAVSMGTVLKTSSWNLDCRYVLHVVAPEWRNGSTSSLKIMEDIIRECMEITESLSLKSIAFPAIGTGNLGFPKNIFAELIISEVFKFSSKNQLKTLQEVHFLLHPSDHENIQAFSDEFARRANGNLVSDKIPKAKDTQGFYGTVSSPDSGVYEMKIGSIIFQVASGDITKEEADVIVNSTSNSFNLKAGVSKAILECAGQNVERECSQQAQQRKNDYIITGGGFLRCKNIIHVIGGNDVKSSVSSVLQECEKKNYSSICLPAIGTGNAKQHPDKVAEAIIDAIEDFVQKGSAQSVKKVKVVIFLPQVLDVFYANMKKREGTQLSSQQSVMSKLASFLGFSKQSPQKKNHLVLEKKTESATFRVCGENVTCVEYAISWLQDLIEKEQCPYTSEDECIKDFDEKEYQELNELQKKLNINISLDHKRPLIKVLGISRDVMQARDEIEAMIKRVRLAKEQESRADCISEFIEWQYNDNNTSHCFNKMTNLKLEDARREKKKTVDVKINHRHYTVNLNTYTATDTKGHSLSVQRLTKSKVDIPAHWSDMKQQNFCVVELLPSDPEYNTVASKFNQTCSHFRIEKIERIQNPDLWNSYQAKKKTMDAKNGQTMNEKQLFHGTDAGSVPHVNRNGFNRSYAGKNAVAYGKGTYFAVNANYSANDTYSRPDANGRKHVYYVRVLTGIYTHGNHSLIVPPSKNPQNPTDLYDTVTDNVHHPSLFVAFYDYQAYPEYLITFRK

[1] = system: PARP enzymes (1–3, 6–8, 10–12, 14); test: PARP selectivity panel; settings: 10 μM, duplicate
[2] = system: TCF transcriptional activity (Wnt) in DLD-1 colorectal cancer cells; test: TCF-luciferase reporter; format: cell-based; settings: DLD-1 cells, 1 μM, 24 h
DLD-1 cancer cells = test: Colony growth assay, DLD-1; format: cell-based; settings: 1, 5 and 10 μM, treated daily, 10 days
[3] = system: RKO colorectal cancer cell line; test: Cell growth inhibition, Wnt-negative RKO; format: cell-based; settings: negative control cell line

Molecule: O=c1[nH]c(-c2ccccc2)cc2c1sc1ccccc12 [compound 16, 3-Phenyl[1]benzothieno[2,3-c]pyridin-1(2H)-one]
- inhibition at 1 µM (TNKS-1): 84%

Molecule: O=c1[nH]c2ccccc2c2c1sc1ccc(O)cc12 [compound 8, 10-Hydroxy[l]benzothieno[2,3-c]quinolin-6(5H)-one]
- inhibition at 1 µM (TNKS-1): ≤ 90%

Molecule: COc1ccc2c(c1)nc(O)c1sc3ccccc3c12 [compound 7, 3-Methoxy[l]benzothieno[2,3-c]quinolin-6(5H)-one]
- % of inhibition TNKS-1 (TNKS-1): > 70%
- inhibition at 1 µM (TNKS-2): > 70%

Molecule: COc1ccc2sc3c(O)nc4ccccc4c3c2c1 [compound 6, 10-Methoxy[l]benzothieno[2,3-c]quinolin-6(5H)-one]
- inhibition at 1 µM (TNKS-1): > 70%
- inhibition at 1 µM (TNKS-2): > 70%

Molecule: O=c1[nH]c2cc(O)ccc2c2c1sc1ccccc12 [compound 9, 3-Hydroxy[l]benzothieno[2,3-c]quinolin-6(5H)-one]
- inhibition at 1 µM (TNKS-1): ≤ 100%

Molecule: O=c1[nH]c(-c2ccccc2)nc2c3c(sc12)CCCC3 [compound 19, 2-Phenyl-6,7,8,9-tetrahydro-3H-benzo[4,5]thieno[3,2-d] pyrimidin-4-one]
- % of inhibition TNKS-1 (TNKS-1): nearly inactive

Molecule: Olaparib [AZD 2281]
- % of inhibition PARP-2 (PARP-2): 100%
- % inhibition PARP-14 (PARP-14): less than 20%

Molecule: Cc1ccc(-c2nc3c(sc4ccccc43)c(=O)[nH]2)cc1 [compound 22, 2-p-Tolyl-3H-benzo[4,5]thieno[3,2-d]pyrimidin-4-one]
- inhibition at 1 µM (TNKS-1): 98%

Molecule: CC(C)(C)c1ccc(-c2nc3c(sc4ccccc43)c(=O)[nH]2)cc1 [compound 23, 2-(4-tert-Butyl-phenyl)-3H-benzo[4,5]thieno[3,2-d] pyrimidin-4-one]
- TNKS-1 inhibition (TNKS-1; 10 μM): fully inhibited
- inhibition of the other PARPs tested [1]: below 20%
- TCF reporter activity inhibition [2]: comparable fashion to the reference compounds 1 and IWR-1
- long-term growth inhibition of DLD-1 cells (DLD-1 cancer cells): marked efficacy
- TNKS-2 inhibition (TNKS-2; 10 μM): fully inhibited
- growth inhibition of Wnt-negative RKO cells [3]: marginal non-specific effects were only detected at concentrations higher than 10 μM
